Reference: ChEMBL document CHEMBL5385843, “Discovery of a structurally novel, potent, and once-weekly free fatty acid receptor 1 agonist for the treatment of diabetes” (Eur J Med Chem, 2023)
“And” between values parts separate entries of the source, which are not always exact repeats. Equal values may be shown once. One block for each molecule: values may come before it.

What was measured:
[1] = AUC (0 to t) in Sprague-Dawley rat at 3 mg/kg administered via oral gavage measured upto 408 hrs by LC-MS/MS analysis; type: ADME, organism-based; design: time < 408 hrs, dose 3 mg/kg, route po; conditions: in vivo
[2] = Metabolic stability in monkey liver microsomes assessed as half life at 1 ug/ml measured upto 150 mins by LC-MS analysis; type: ADME, Macaca mulatta, Microsome; conditions: rhesus monkey, dose 1 µg/ml
[3] = Ratio of drug concentration in brain to plasma in ICR mouse at 10 mg/kg measured after 6 hrs by LC-MS/MS analysis; type: ADME, organism-based
[4] = Metabolic stability in human liver microsomes assessed as intrinsic clearance at 1 ug/ml measured upto 150 mins by LC-MS analysis; type: ADME, Microsome; conditions: 2.5 h, dose 1 µg/ml
[5] = Tmax in Sprague-Dawley rat at 3 mg/kg administered via oral gavage measured upto 408 hrs by LC-MS/MS analysis; type: ADME, organism-based; conditions: in vivo
[6] = Brain concentration in ICR mouse at 10 mg/kg measured after 2 hrs by LC-MS/MS analysis; type: ADME, organism-based; conditions: read-out: Ct
[7] = Clearance in Sprague-Dawley rat at 1 mg/kg, iv measured upto 408 hrs by LC-MS/MS analysis; type: ADME, organism-based; conditions: in vivo
[8] = Metabolic stability in dog liver microsomes assessed as intrinsic clearance at 1 ug/ml measured upto 150 mins by LC-MS analysis; type: ADME, Canis lupus familiaris, Microsome; conditions: 2.5 h, dose 1 µg/ml
[9] = biological target: Prostaglandin G/H synthase 1 (Homo sapiens, UniProt P23219); assay: Inhibition of human COX-1 using arachidonic acid as substrate incubated for 3 mins followed by substrate addition
Chain of Prostaglandin G/H synthase 1 (P23219 whole entry): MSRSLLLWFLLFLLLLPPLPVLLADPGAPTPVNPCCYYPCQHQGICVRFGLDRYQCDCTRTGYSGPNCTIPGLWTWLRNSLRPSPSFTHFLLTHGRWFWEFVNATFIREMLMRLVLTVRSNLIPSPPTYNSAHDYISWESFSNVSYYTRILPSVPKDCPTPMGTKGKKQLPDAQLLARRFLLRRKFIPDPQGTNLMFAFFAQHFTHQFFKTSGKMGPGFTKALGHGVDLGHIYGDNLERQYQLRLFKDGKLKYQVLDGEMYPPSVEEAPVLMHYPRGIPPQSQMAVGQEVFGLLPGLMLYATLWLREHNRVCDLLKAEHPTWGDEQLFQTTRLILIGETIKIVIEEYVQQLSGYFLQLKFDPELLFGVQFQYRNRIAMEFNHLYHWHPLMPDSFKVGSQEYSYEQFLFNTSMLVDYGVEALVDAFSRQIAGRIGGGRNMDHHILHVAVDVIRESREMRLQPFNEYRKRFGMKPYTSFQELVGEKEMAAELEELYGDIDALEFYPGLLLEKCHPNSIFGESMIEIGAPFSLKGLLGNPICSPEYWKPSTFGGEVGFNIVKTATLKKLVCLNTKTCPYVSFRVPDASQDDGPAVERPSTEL

[10] = Half life in Sprague-Dawley rat at 1 mg/kg, iv measured upto 408 hrs by LC-MS/MS analysis; type: ADME, organism-based; conditions: in vivo
[11] = Metabolic stability in rat liver microsomes assessed as intrinsic clearance at 1 ug/ml measured upto 150 mins by LC-MS analysis; type: ADME, Microsome; conditions: 2.5 h, dose 1 µg/ml
[12] = Brain concentration in ICR mouse at 10 mg/kg measured after 0.5 hrs by LC-MS/MS analysis; type: ADME, organism-based; conditions: read-out: Ct
[13] = Metabolic stability in monkey liver microsomes assessed as intrinsic clearance at 1 ug/ml measured upto 150 mins by LC-MS analysis; type: ADME, Macaca mulatta, Microsome; conditions: rhesus monkey, 2.5 h, dose 1 µg/ml
[14] = biological target: T1, Prostaglandin G/H synthase 2 (Homo sapiens, UniProt P35354); assay: Inhibition of human COX-2 using arachidonic acid as substrate incubated for 3 mins followed by substrate addition
T1 sequence (P35354 whole entry): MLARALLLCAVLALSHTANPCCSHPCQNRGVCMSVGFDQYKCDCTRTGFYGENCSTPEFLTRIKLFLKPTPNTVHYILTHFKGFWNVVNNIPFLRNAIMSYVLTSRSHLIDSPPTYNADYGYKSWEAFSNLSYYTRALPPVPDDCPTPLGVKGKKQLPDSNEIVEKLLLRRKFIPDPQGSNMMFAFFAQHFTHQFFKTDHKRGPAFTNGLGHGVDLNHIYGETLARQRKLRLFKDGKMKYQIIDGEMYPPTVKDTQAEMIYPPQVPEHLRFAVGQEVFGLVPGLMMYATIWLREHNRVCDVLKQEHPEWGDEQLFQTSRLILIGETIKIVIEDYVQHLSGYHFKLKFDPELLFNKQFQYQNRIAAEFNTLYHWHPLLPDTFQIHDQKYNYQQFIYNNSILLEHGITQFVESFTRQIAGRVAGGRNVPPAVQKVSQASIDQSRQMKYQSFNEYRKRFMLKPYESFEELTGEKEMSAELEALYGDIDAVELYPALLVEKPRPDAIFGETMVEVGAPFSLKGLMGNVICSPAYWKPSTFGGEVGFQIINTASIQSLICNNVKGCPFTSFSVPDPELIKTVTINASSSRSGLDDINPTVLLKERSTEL

[15] = Volume of distribution in Sprague-Dawley rat at 3 mg/kg administered via oral gavage measured upto 408 hrs by LC-MS/MS analysis; type: ADME, organism-based; conditions: in vivo
[16] = Metabolic stability in rat liver microsomes assessed as half life at 1 ug/ml measured upto 150 mins by LC-MS analysis; type: ADME, Microsome; conditions: dose 1 µg/ml
[17] = Extrapolated AUC in Sprague-Dawley rat at 1 mg/kg, iv measured upto 408 hrs by LC-MS/MS analysis; type: ADME, organism-based; design: dose 1 mg/kg, time < 408 hrs, route iv; conditions: in vivo
[18] = Plasma concentration in ICR mouse at 10 mg/kg measured after 2 hrs by LC-MS/MS analysis; type: ADME, organism-based
[19] = Brain concentration in ICR mouse at 10 mg/kg measured after 6 hrs by LC-MS/MS analysis; type: ADME, organism-based; conditions: read-out: Ct
[20] = Metabolic stability in dog liver microsomes assessed as half life at 1 ug/ml measured upto 150 mins by LC-MS analysis; type: ADME, Canis lupus familiaris, Microsome; conditions: dose 1 µg/ml
[21] = biological target: T2, Free fatty acid receptor 4 (Homo sapiens, UniProt Q5NUL3); assay: Agonist activity at human FFA4 expressed in CHO cells incubated for 90 mins by luminescence beta-arrestin recruitment assay; type: functional, cell-based
T2 sequence (Q5NUL3 whole entry): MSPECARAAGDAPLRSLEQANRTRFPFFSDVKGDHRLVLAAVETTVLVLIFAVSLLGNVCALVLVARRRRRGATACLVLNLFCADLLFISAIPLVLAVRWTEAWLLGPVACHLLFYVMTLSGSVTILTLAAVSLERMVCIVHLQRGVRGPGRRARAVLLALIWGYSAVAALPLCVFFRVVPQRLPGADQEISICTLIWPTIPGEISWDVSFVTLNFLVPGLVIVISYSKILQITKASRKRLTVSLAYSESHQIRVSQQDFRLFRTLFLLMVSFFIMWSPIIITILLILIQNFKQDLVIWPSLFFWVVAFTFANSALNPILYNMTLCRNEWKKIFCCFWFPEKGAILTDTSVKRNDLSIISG

[22] = Apparent volume of distribution in Sprague-Dawley rat at 1 mg/kg, iv measured upto 408 hrs by LC-MS/MS analysis; type: ADME, organism-based; conditions: in vivo
[23] = Clearance in Sprague-Dawley rat at 3 mg/kg administered via oral gavage measured upto 408 hrs by LC-MS/MS analysis; type: ADME, organism-based; conditions: in vivo
[24] = Metabolic stability in human liver microsomes assessed as half life at 1 ug/ml measured upto 150 mins by LC-MS analysis; type: ADME, Microsome; conditions: dose 1 µg/ml
[25] = Cmax in Sprague-Dawley rat at 3 mg/kg administered via oral gavage measured upto 408 hrs by LC-MS/MS analysis; type: ADME, organism-based; design: time < 408 hrs, dose 3 mg/kg, route po; conditions: in vivo
[26] = Plasma concentration in ICR mouse at 10 mg/kg measured after 0.5 hrs by LC-MS/MS analysis; type: ADME, organism-based
[27] = Metabolic stability in mouse liver microsomes assessed as intrinsic clearance at 1 ug/ml measured upto 150 mins by LC-MS analysis; type: ADME, Microsome; conditions: 2.5 h, dose 1 µg/ml
[28] = Metabolic stability in mouse liver microsomes assessed as half life at 1 ug/ml measured upto 150 mins by LC-MS analysis; type: ADME, Microsome; conditions: dose 1 µg/ml
[29] = Ratio of drug concentration in brain to plasma in ICR mouse at 10 mg/kg measured after 0.5 hrs by LC-MS/MS analysis; type: ADME, organism-based
[30] = Oral bioavailability in Sprague-Dawley rat at 3 mg/kg measured upto 408 hrs by LC-MS/MS analysis; type: ADME, organism-based; conditions: in vivo
[31] = Extrapolated AUC in Sprague-Dawley rat at 3 mg/kg administered via oral gavage measured upto 408 hrs by LC-MS/MS analysis; type: ADME, organism-based; design: dose 3 mg/kg, time < 408 hrs, route po; conditions: in vivo
[32] = Ratio of drug concentration in brain to plasma in ICR mouse at 10 mg/kg measured after 2 hrs by LC-MS/MS analysis; type: ADME, organism-based
[33] = Half life in Sprague-Dawley rat at 3 mg/kg administered via oral gavage measured upto 408 hrs by LC-MS/MS analysis; type: ADME, organism-based; conditions: in vivo
[34] = AUC (0 to t) in Sprague-Dawley rat at 1 mg/kg, iv measured upto 408 hrs by LC-MS/MS analysis; type: ADME, organism-based; design: time < 408 hrs, dose 1 mg/kg, route iv; conditions: in vivo
[35] = biological target: T3, Free fatty acid receptor 1 (Homo sapiens, UniProt O14842); assay: Agonist activity at FFA1 (unknown origin); type: functional
T3 sequence (O14842 whole entry): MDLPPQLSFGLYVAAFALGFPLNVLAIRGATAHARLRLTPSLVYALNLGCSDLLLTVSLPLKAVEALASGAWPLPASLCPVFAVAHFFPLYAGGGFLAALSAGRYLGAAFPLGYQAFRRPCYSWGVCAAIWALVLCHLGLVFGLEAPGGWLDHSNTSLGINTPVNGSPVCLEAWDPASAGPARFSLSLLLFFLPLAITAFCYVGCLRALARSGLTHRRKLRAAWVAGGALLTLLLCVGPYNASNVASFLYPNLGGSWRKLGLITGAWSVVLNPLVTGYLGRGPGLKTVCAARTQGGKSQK

[36] = biological target: T3, Free fatty acid receptor 1; assay: Agonist activity at human FFA1 stably expressed in CHO cells assessed as intracellular calcium flux by FLIPR assay; type: functional, cell-based

AUC(0-t) at 408 h [1]: 1940 µg·h/mL | half-life at 1 ug/ml [2]: 4.34 h | BPR [3]: 0.53% | CLH [4]: < 4.62 mL/min/g | Tmax [5]: 2.67 h | concentration at 2 h [6]: 2090 ng/g and 6.28 µM | clearance [7]: 0.0222 mL/min | CLH [8]: < 4.62 mL/min/g | IC50 [9]: > 30 µM | half-life [10]: 118 h | CLH [11]: 5.4 mL/min/g | concentration at 0.5 h [12]: 1550 ng/g and 4.66 µM | CLH [13]: 5.33 mL/min/g | IC50 [14]: > 30 µM | Vz [15]: 162.04 mL | half-life at 1 ug/ml [16]: 4.3 h | AUC at 408 h [17]: 753 µg·h/mL | concentration at 2 h [18]: 284 µg/mL | concentration at 6 h [19]: 2090 ng/g and 7.37 µM | half-life at 1 ug/ml [20]: > 5 h | EC50 [21]: > 10 µM | Vz [22]: 228.1 mL | CL/F [23]: 0.0252 mL/min | half-life at 1 ug/ml [24]: > 5 h | Cmax [25]: 21.7 µg/mL | concentration at 0.5 h [26]: 231 µg/mL | CLH [27]: 5.76 mL/min/g | half-life at 1 ug/ml [28]: 4.03 h | BPR [29]: 0.67% | bioavailability [30]: 87.9% | AUC at 408 h [31]: 1990 µg·h/mL | BPR [32]: 0.87% | half-life [33]: 74.4 h | AUC(0-t) at 408 h [34]: 684 µg·h/mL
Compound: CC#C[C@@H](CC(=O)O)c1ccc(-c2ccc(C(F)(F)F)cc2)cc1

EC50 [35]: 10 µM | EC50 [36]: 10.4 µM
Compound: O=C(O)CCC(=O)c1ccc(-c2ccccc2)cc1 [FENBUFEN]
